Results taken from patent US20130323314A1, “Novel Nanoparticles of Lactoferrin Useful for Preparing a Pharmaceutical Composition Facilitating Easy Delivery of the Drug and a Process for Preparing the Same” (UNIVERSITY OF HYDERABAD, priority 2011, published 2013).
Where a name gives a salt, the structure may show the parent alone. Read-outs that look alike come from different tables or passages of the source. Marks after values point to notes of the source that are not given here.

Tests used:
[1] = tested on: heart; conditions: rat, in vivo
[2] = in vivo; conditions: rat, iv
[3] = Pharmacokinetics and tissue distribution after oral administration; conditions: rat
[4] = Pharmacokinetics and tissue distribution after subcutaneous administration; conditions: rat
[5] = Pharmacokinetics and tissue distribution after intramuscular administration; conditions: rat
[6] = in vivo; conditions: rat, po
[7] = Pharmacokinetics and tissue distribution after intravenous administration; conditions: rat
[8] = in vivo; conditions: rat, sc
[9] = in vivo; conditions: rat, im

SMILES: COc1cccc2c1C(=O)c1c(O)c3c(c(O)c1C2=O)C[C@@](O)(C(=O)CO)C[C@@H]3O[C@H]1C[C@H](N)[C@H](O)[C@H](C)O1 [Doxo, Doxorubicin hydrochloride]
- toxicity to heart (safety analysis) [1]: cardiotoxic
- toxicity to heart (safety analysis) ([1]; iv): cardiotoxic
- toxicity to heart (safety analysis) ([1]; po): cardiotoxic
- toxicity to heart (safety analysis) ([1]; sc): cardiotoxic
- Tmax [2]: 8 h
- half-life [2]: 2.74 h
- AUC ([3]; Blood): 105.24 (h) * (μg/μL)
- AUMC ([3]; Blood): 1227.63 (h)^2 * (μg/μL)
- Cmax ([3]; Blood): 8250 µg/mL
- t½ ([3]; Blood): 3.741 h
- AUC ([3]; Heart): 248.048 (h) * (μg/g)
- AUMC ([3]; Heart): 3211.86 (h)^2 * (μg/g)
- MRT last ([3]; Heart): 8.9708 h
- Tmax ([3]; Heart): 16 h
- t½ ([3]; Heart): 7.533 h
- AUC ([3]; Kidney): 362.639 (h) * (μg/g)
- AUMC ([3]; Kidney): 4321.31 (h)^2 * (μg/g)
- t½ ([3]; Kidney): 6.47 h
- AUC ([3]; Liver): 207.816 (h) * (μg/g)
- AUMC ([3]; Liver): 2379.51 (h)^2 * (μg/g)
- MRT last ([3]; Liver): 7.428 h
- t½ ([3]; Liver): 6.099 h
- AUC ([3]; Spleen): 190.928 (h) * (μg/g)
- AUMC ([3]; Spleen): 2616.55 (h)^2 * (μg/g)
- MRT last ([3]; Spleen): 9.2978 h
- t½ ([3]; Spleen): 5.894 h
- AUC ([4]; Blood): 167.94 (h) * (μg/μL)
- AUMC ([4]; Blood): 1745.8 (h)^2 * (μg/μL)
- Cmax ([4]; Blood): 12855 µg/mL
- MRT last ([4]; Blood): 10.394 h
- t½ ([4]; Blood): 7.0001 h
- AUC ([4]; Heart): 467.46 (h) * (μg/μL)
- AUMC ([4]; Heart): 13515 (h)^2 * (μg/μL)
- Cmax ([4]; Heart): 18198 µg/mL
- MRT last ([4]; Heart): 28.912 h
- t½ ([4]; Heart): 18.662 h
- AUC ([4]; Kidney): 2249.1 (h) * (μg/g)
- AUMC ([4]; Kidney): 19205 (h)^2 * (μg/g)
- Cmax ([4]; Kidney): 200.93 h
- MRT last ([4]; Kidney): 8.5383 h
- t½ ([4]; Kidney): 3.888 h
- AUC ([4]; Liver): 1025 (h) * (μg/μL)
- AUMC ([4]; Liver): 10140 (h)^2 * (μg/μL)
- Cmax ([4]; Liver): 71123 µg/mL
- MRT last ([4]; Liver): 9.8923 h
- t½ ([4]; Liver): 5.9991 h
- AUC ([4]; Spleen): 553.3 (h) * (μg/g)
- AUMC ([4]; Spleen): 7927.3 (h)^2 * (μg/g)
- Cmax ([4]; Spleen): 34.747 h
- MRT last ([4]; Spleen): 14.327 h
- t½ ([4]; Spleen): 5.3088 h
- AUC ([5]; Blood): 185.4 (h) * (μg/μL)
- AUMC ([5]; Blood): 1581.8 (h)^2 * (μg/μL)
- Cmax ([5]; Blood): 11032 µg/mL
- MRT last ([5]; Blood): 8.5317 h
- t½ ([5]; Blood): 4.466 h
- AUC ([5]; Heart): 510.54 (h) * (μg/g)
- AUMC ([5]; Heart): 12046 (h)^2 * (μg/g)
- MRT last ([5]; Heart): 23.595 h
- t½ ([5]; Heart): 13.27 h
- AUC ([5]; Kidney): 2580.5 (h) * (μg/g)
- AUMC ([5]; Kidney): 26548 (h)^2 * (μg/g)
- MRT last ([5]; Kidney): 10.288 h
- t½ ([5]; Kidney): 2.0438 h
- AUC ([5]; Liver): 751.01 (h) * (μg/g)
- AUMC ([5]; Liver): 10278 (h)^2 * (μg/g)
- MRT last ([5]; Liver): 13.685 h
- t½ ([5]; Liver): 4.9231 h
- AUC ([5]; Spleen): 899.9 (h) * (μg/g)
- AUMC ([5]; Spleen): 19234 (h)^2 * (μg/g)
- MRT last ([5]; Spleen): 21.374 h
- t½ ([5]; Spleen): 13.602 h
- Cmax ([6]; heart): 17200 ng/g
- MRT last ([6]; in vivo): 8.21 h
- Tmax ([6]; in vivo): 8 h
- Cmax ([6]; kidney): 32900 ng/g
- Cmax ([6]; liver): 17400 ng/g
- Cmax ([6]; spleen): 11100 ng/g
- Cmax ([7]; Blood): 22286.7 µg/mL
- t½ ([7]; Heart): 4.444 h
- t½ ([7]; Kidney): 2.63 h
- t½ ([7]; Liver): 3.432 h
- t½ ([7]; Spleen): 3.833 h
- Tmax [8]: 8 h
- Tmax [9]: 8 h
